We go through nine molecules from PubChem BioAssay (NCI).

Among the test systems are P388 leukemia; DMS 273 small cell lung; KM20L2 colon; HOP-18 NSCLC; XF 498 CNS; SN12K1 renal; BT-549 breast; ACHN renal; PC-3 prostate; M14 melanoma.
Common to all, as to assay: NCI tumour cell line growth inhibition, 48 h

Values joined by “and” are separate entries in the source; they are usually repeats but may differ in a detail not shown here. Equal values may be shown once.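 Five compound concentrations were applied to cells in 96-well plates for 48 hours; endpoints were derived by simple linear interpolation of the resulting dose-response curve. The concentration for 50% growth inhibition is given as GI50. At the TGI there is no net growth.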

On to `Cc1c2cc[n+](C)cc2c(COC2OC(CO)C(O)C2O)c2c3ccccc3n(C)c12` (stereo unspecified), for which the TGI is above 100 µM in the experiment with P388 leukemia; above 100 µM in the experiment on DMS 273 small cell lung; above 100 µM with KM20L2 colon; above 100 µM in the experiment on HOP-18 NSCLC; above 97.3 µM in the experiment with XF 498 CNS; above 100 µM in the experiment with SN12K1 renal.

Turning to `CC(=O)O[C@H]1C(=O)[C@]2(C)[C@@H](OC(=O)OCC(O)CO)C[C@H]3OC[C@@]3(OC(C)=O)[C@H]2[C@H](OC(=O)c2ccccc2)[C@]2(O)C[C@H](OC(=O)[C@H](O)[C@@H](NC(=O)c3ccccc3)c3ccccc3)C(C)=C1C2(C)C` (stereo partly specified), the TGI with BT-549 breast is 22.9 µM; in the experiment on ACHN renal, above 100 µM; in the experiment with PC-3 prostate, above 70.8 µM.

For `CC(=O)OC1CC2(O)C(CCC3(C)C(c4ccc(=O)oc4)CCC32O)C2(C)CCC(O)C=C12` (stereo unspecified), the GI50 with P388 leukemia is 63.8 µM; in the experiment with DMS 273 small cell lung it was 0.0375 µM; in the experiment with KM20L2 colon, 0.0375 µM; in the experiment on HOP-18 NSCLC it was 0.0375 µM; with XF 498 CNS, 0.0138 µM; in the experiment on SN12K1 renal, 0.0375 µM. Besides, the TGI in the experiment with P388 leukemia is 245 µM; with DMS 273 small cell lung it was 0.0714 µM and 0.0478 µM; in the experiment on KM20L2 colon it was 0.191 µM and 0.187 µM; with HOP-18 NSCLC, 0.075 µM and 0.436 µM; with XF 498 CNS it was 0.026 µM and 0.0553 µM; in the experiment on SN12K1 renal, 0.119 µM and 0.393 µM.

As for `CC(C)(C)CC(C)(C)Cc1ccc(OCCOCC[N+](C)(C)Cc2ccccc2)cc1`, the GI50 was 11.8 µM in the experiment with ACHN renal and 1.42 µM in the experiment on M14 melanoma. Also, the TGI was determined as 27 µM in the experiment on ACHN renal and 2.88 µM in the experiment on M14 melanoma.

As to `Cc1c2cc[n+](C)cc2c(C)c2c1[nH]c1ccc(O)cc12`, the TGI in the experiment with P388 leukemia is 38.7 µM; in the experiment on BT-549 breast, 71.1 µM; in the experiment on DMS 273 small cell lung, above 78.6 µM; in the experiment on KM20L2 colon it was above 100 µM; in the experiment on HOP-18 NSCLC, above 94.5 µM; with M14 melanoma, 20.5 µM. In addition, the TGI is above 82.7 µM in the experiment with SN12K1 renal and above 100 µM in the experiment on PC-3 prostate.

Regarding `CCOC(=O)c1c(NC(=S)NCc2ccccc2)sc2c1CCN(C)C2`, the TGI in the experiment with BT-549 breast, in the experiment with ACHN renal, with M14 melanoma and in the experiment with PC-3 prostate was above 100 µM each time.

Consider `O=c1c(-c2ccccc2)c[nH]c2cc([N+](=O)[O-])c(/C(Cl)=C/c3ccccc3)cc12`, for which the TGI is above 31.6 µM in the experiment with P388 leukemia; above 38.7 µM in the experiment on DMS 273 small cell lung; above 54.3 µM in the experiment with KM20L2 colon; 23.1 µM with HOP-18 NSCLC; 23.7 µM with XF 498 CNS; above 41.7 µM with SN12K1 renal.

Turning to `COc1cccc2c1C(=O)c1c(O)c3c(c(O)c1C2=O)C[C@@](O)(C(C)=O)C[C@@H]3OC1CC(N)C(O)C(C)O1` (stereo partly specified), the TGI was 0.383 µM in the experiment with P388 leukemia; 2.86 µM and 1.45 µM and > 5.01 µM in the experiment with KM20L2 colon; 0.215 µM with SN12K1 renal. The GI50 in the experiment on BT-549 breast was 0.0482 µM; in the experiment on ACHN renal, below 0.011 µM; in the experiment on HOP-18 NSCLC it was above 5.01 µM; in the experiment with M14 melanoma, 0.0487 µM.

On to `CN1CCN(c2ccc3nc(-c4ccc(OCCCN5C(=O)c6cccc7cccc(c67)C5=O)cc4)[nH]c3c2)CC1`, for which the GI50 in the experiment with BT-549 breast was 2.66 µM; with ACHN renal it was 5.34 µM; in the experiment on PC-3 prostate, 2.04 µM. Also, the TGI with BT-549 breast is 6.13 µM; with ACHN renal, 11.2 µM; in the experiment with PC-3 prostate, 4.95 µM.
